Among the data in patent US8987265B2, “Substituted 1,3,5-triazine derivatives of fused bicyclic oxalamide compounds for treatment of Hepatitis C” (priority 2012, dated 2015) are EC50 values, retold here.

One test relates to HCV pseudoparticles, genotype 1a (H77C) E1 and E2 envelope. The test is described as follows: HCV pseudoparticle infection assay (luciferase, Huh7 cells). The class given is cell-based. To be noted: Hepatitis C virus, Huh-7, 48 h, read-out: EC50 (nM) 1a (H77C).
Turning to `O=C(NCc1ccc(F)cc1)C(=O)N1CC2CN(C(=O)c3ccc(Nc4nc(NC5(c6ccc(Cl)cc6)CC5)nc(OCC(F)(F)F)n4)cc3)CC2C1` (centres unmarked) [Compound 1002], the EC50 lay within 0.01 to 10 nM.

Consider `O=C(Nc1cc(F)cc(F)c1)C(=O)N1CC2CN(C(=O)c3ccc(Nc4nc(NC5(c6ccc(Cl)cc6)CC5)nc(OCC(F)(F)F)n4)cc3)CC2C1` (centres unmarked) [Compound 1010], for which the EC50 was in the range of 0.01 to 10 nM.

Take `CNC(=O)C(=O)N1CC2CN(C(=O)c3ccc(Nc4nc(NC5(c6ccc(Cl)cc6)CC5)nc(OCC(F)(F)F)n4)cc3)CC2C1` (centres unmarked) [Compound 1017]: the EC50 was in the range of 10 to 1000 nM.

For the compound `O=C(C(=O)N1CC2CN(C(=O)c3ccc(Nc4nc(NC5(c6ccc(Cl)cc6)CC5)nc(OCC(F)(F)F)n4)cc3)CC2C1)N1CCc2ccccc2C1` (centres unmarked) [Compound 1014], the half-maximal effective concentration (EC50) fell in the range of 0.01 to 10 nM.

Consider `O=C(NC1CCCCC1)C(=O)N1CC2CN(C(=O)c3ccc(Nc4nc(NC5(c6ccc(Cl)cc6)CC5)nc(OCC(F)(F)F)n4)cc3)CC2C1` (centres unmarked) [Compound 1015], for which the EC50 fell in the range of 0.01 to 10 nM.

Take `O=C(Nc1nncs1)C(=O)N1CC2CN(C(=O)c3ccc(Nc4nc(NC5(c6ccc(Cl)cc6)CC5)nc(OCC(F)(F)F)n4)cc3)CC2C1` (centres unmarked) [Compound 1007]: the EC50 lay in the range of 0.01 to 10 nM. On to `O=C(Nc1ccc(F)cc1)C(=O)N1CC2CN(C(=O)c3ccc(Nc4nc(NC5(c6ccc(Cl)cc6)CC5)nc(OCC(F)(F)F)n4)cc3)CC2C1` (centres unmarked) [Compound 1008], for which the EC50 is 0.01 to 10 nM. On to `Cc1nnc(NC(=O)C(=O)N2CC3CN(C(=O)c4ccc(Nc5nc(NC6(c7ccc(Cl)cc7)CC6)nc(OCC(F)(F)F)n5)cc4)CC3C2)s1` (centres unmarked) [Compound 1016], for which the EC50 lay in the range of 0.01 to 10 nM. On to `CCc1nnc(NC(=O)C(=O)N2CC3CN(C(=O)c4ccc(Nc5nc(NC6(c7ccc(Cl)cc7)CC6)nc(OCC(F)(F)F)n5)cc4)CC3C2)s1` (centres unmarked) [Compound 1019], for which the EC50 lay within 0.01 to 10 nM. For the compound `O=C(C(=O)N1CC2CN(C(=O)c3ccc(Nc4nc(NC5(c6ccc(Cl)cc6)CC5)nc(OCC(F)(F)F)n4)cc3)CC2C1)N1CCCCC1` (centres unmarked) [Compound 1013], the EC50 fell in the range of 0.01 to 10 nM.

Take `NC(=O)C(=O)N1CC2CN(C(=O)c3ccc(Nc4nc(NC5(c6ccc(Cl)cc6)CC5)nc(OCC(F)(F)F)n4)cc3)CC2C1` (centres unmarked) [Compound 1003]: the EC50 is 0.01 to 10 nM. `O=C(Nc1cccc(F)c1)C(=O)N1CC2CN(C(=O)c3ccc(Nc4nc(NC5(c6ccc(Cl)cc6)CC5)nc(OCC(F)(F)F)n4)cc3)CC2C1` (centres unmarked) [Compound 1006]: the EC50 lay in the range of 0.01 to 10 nM.

In the case of `O=C(C(=O)N1CC2CN(C(=O)c3ccc(Nc4nc(NC5(c6ccc(Cl)cc6)CC5)nc(OCC(F)(F)F)n4)cc3)CC2C1)N1CCOCC1` (centres unmarked) [Compound 1004], the EC50 was in the range of 0.01 to 10 nM. As to `CC(C)CNC(=O)C(=O)N1CC2CN(C(=O)c3ccc(Nc4nc(NC5(c6ccc(Cl)cc6)CC5)nc(OCC(F)(F)F)n4)cc3)CC2C1` (centres unmarked) [Compound 1012], the EC50 fell in the range of 0.01 to 10 nM.

`O=C(Nc1ccccc1)C(=O)N1CC2CN(C(=O)c3ccc(Nc4nc(NC5(c6ccc(Cl)cc6)CC5)nc(OCC(F)(F)F)n4)cc3)CC2C1` (centres unmarked) [Compound 1011]: the EC50 was 0.01 to 10 nM. Consider `Cc1ccc(NC(=O)C(=O)N2CC3CN(C(=O)c4ccc(Nc5nc(NC6(c7ccc(Cl)cc7)CC6)nc(OCC(F)(F)F)n5)cc4)CC3C2)cc1` (centres unmarked) [Compound 1001], for which the EC50 is 0.01 to 10 nM. `O=C(Nc1nccs1)C(=O)N1CC2CN(C(=O)c3ccc(Nc4nc(NC5(c6ccc(Cl)cc6)CC5)nc(OCC(F)(F)F)n4)cc3)CC2C1` (centres unmarked) [Compound 1020]: the half-maximal effective concentration (EC50) fell in the range of 0.01 to 10 nM. The same measure, in the same setting: the result for `Cc1cc(NC(=O)C(=O)N2CC3CN(C(=O)c4ccc(Nc5nc(NC6(c7ccc(Cl)cc7)CC6)nc(OCC(F)(F)F)n5)cc4)CC3C2)no1` (centres unmarked) [Compound 1009] reads 0.01 to 10 nM; that for `CN(C)C(=O)C(=O)N1CC2CN(C(=O)c3ccc(Nc4nc(NC5(c6ccc(Cl)cc6)CC5)nc(OCC(F)(F)F)n4)cc3)CC2C1` (centres unmarked) [Compound 1005], 0.01 to 10 nM; that for `O=C(Nc1ccc(F)cc1F)C(=O)N1CC2CN(C(=O)c3ccc(Nc4nc(NC5(c6ccc(Cl)cc6)CC5)nc(OCC(F)(F)F)n4)cc3)CC2C1` (centres unmarked) [Compound 1018], 0.01 to 10 nM.

Staying with this test, now noted: Hepatitis C virus, Huh-7, 48 h, read-out: EC50 (nM) 1a H77C).
With `CNC(=O)C(=O)N1CC2CN(C(=O)c3ccc(Nc4nc(NC5(c6ccc(Cl)cc6)CC5)nc(OCC(F)(F)F)n4)cc3)CC2C1` (centres unmarked) [Compound 1017], the EC50 was 11.1 nM. On the same count and under the same terms, then `Cc1ccc(NC(=O)C(=O)N2CC3CN(C(=O)c4ccc(Nc5nc(NC6(c7ccc(Cl)cc7)CC6)nc(OCC(F)(F)F)n5)cc4)CC3C2)cc1` (centres unmarked) [Compound 1001], with 0.12 nM. Same read-out and setting: then `CN(C)C(=O)C(=O)N1CC2CN(C(=O)c3ccc(Nc4nc(NC5(c6ccc(Cl)cc6)CC5)nc(OCC(F)(F)F)n4)cc3)CC2C1` (centres unmarked) [Compound 1005], with 2.68 nM.

Broadly, the EC50 is the concentration that produces a half-maximal response.
